Test results reported in ChEMBL document CHEMBL1201862, “PubChem BioAssay data set” (2004).
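All cell lines were grown in 96-well plates and treated with compound for 48 hours. GI50 = concentration required for 50% inhibition of growth.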 Active and inactive are the calls of the source. Rule as the data show it: active = GI50 up to about 1.1 µM and inactive = higher.

What was measured:
Test in all cases: NCI-60 cell line screen, 48 h
A498 = tested on: A498
ACHN = tested on: ACHN
CAKI-1 = tested on: CAKI-1
DLD-1 = tested on: DLD-1
DMS-273 = tested on: DMS-273
HOP-92 = tested on: HOP-92
HT-29 = tested on: HT-29
Malme-3M = tested on: Malme-3M
NCI-H226 = tested on: NCI-H226
NCI-H522 = tested on: NCI-H522
OVCAR-3 = tested on: OVCAR-3
OVCAR-4 = tested on: OVCAR-4
OVCAR-8 = tested on: OVCAR-8
SF-539 = tested on: SF-539
SK-MEL-28 = tested on: SK-MEL-28
SK-MEL-5 = tested on: SK-MEL-5
SK-OV-3 = tested on: SK-OV-3
SNB-75 = tested on: SNB-75
U-251 = tested on: U-251

Row | Structure (SMILES) | GI50 (A498) | GI50 (ACHN) | GI50 (CAKI-1) | GI50 (DLD-1) | GI50 (DMS-273) | GI50 (HOP-92) | GI50 (HT-29) | GI50 (Malme-3M) | GI50 (NCI-H226) | GI50 (NCI-H522) | GI50 (OVCAR-3) | GI50 (OVCAR-4) | GI50 (OVCAR-8) | GI50 (SF-539) | GI50 (SK-MEL-28) | GI50 (SK-MEL-5) | GI50 (SK-OV-3) | GI50 (SNB-75) | GI50 (U-251)
1 | CC(C)(C)C1(O)Cc2ccccc2C(=O)O1 (stereo not drawn) | > 100 µM (inactive) | > 100 µM (inactive) | > 100 µM (inactive) | > 100 µM (inactive) | > 100 µM (inactive) | > 100 µM (inactive) | > 100 µM (inactive) | > 100 µM (inactive) | > 100 µM (inactive) | > 100 µM (inactive) | > 100 µM (inactive) | > 100 µM (inactive) | > 100 µM (inactive) | > 100 µM (inactive) | > 100 µM (inactive) | > 100 µM (inactive) | > 100 µM (inactive) | > 100 µM (inactive) | > 100 µM (inactive)
2 | COc1ccc(C2(Cl)C(Cl)(C(F)(F)F)C2(Cl)C(F)(F)F)cc1 (stereo not drawn) | – | 16.8 µM (inactive) | 16 µM (inactive) | 15.7 µM (inactive) | 14.3 µM (inactive) | 13.9 µM (inactive) | 14.4 µM (inactive) | – | 15.5 µM (inactive) | – | 15.5 µM (inactive) | 16.4 µM (inactive) | 12.6 µM (inactive) | 15.2 µM (inactive) | 15.6 µM (inactive) | 10.4 µM (inactive) | 16.7 µM (inactive) | 14.9 µM (inactive) | 14.9 µM (inactive)
3 | Cn1c2c(c3ccccc31)CCN(CCCCN1CCN(c3cccc(Cl)c3)CC1)C2=O | 13.8 µM (inactive) | 14.9 µM (inactive) | 27.2 µM (inactive) | 10.6 µM (inactive) | 9.06 µM (inactive) | 15.2 µM (inactive) | 2.79 µM (inactive) | > 10 µM (inactive) | – | 12.3 µM (inactive) | 15.5 µM (inactive) | 14.9 µM (inactive) | 17.8 µM (inactive) | 12.8 µM (inactive) | 6.07 µM (inactive) | 10.1 µM (inactive) | 16.3 µM (inactive) | 0.0975 µM (active) | 11.6 µM (inactive)
4 | C/C(=N/O)c1sc(-c2nc(C)c(/C(C)=N\O)s2)nc1C | > 100 µM (inactive) | > 100 µM (inactive) | > 100 µM (inactive) | > 100 µM (inactive) | > 100 µM (inactive) | > 100 µM (inactive) | > 100 µM (inactive) | > 100 µM (inactive) | > 100 µM (inactive) | – | > 100 µM (inactive) | > 100 µM (inactive) | > 100 µM (inactive) | > 100 µM (inactive) | > 100 µM (inactive) | > 100 µM (inactive) | > 100 µM (inactive) | 31.3 µM (inactive) | > 100 µM (inactive)
5 | COc1nc(NC2OCC(OC(C)=O)C(OC(C)=O)C2OC(C)=O)c(/N=C\C=N\c2c(NC3OCC(OC(C)=O)C(OC(C)=O)C3OC(C)=O)nc(OC)n(C)c2=O)c(=O)n1C (stereo not drawn) | > 100 µM (inactive) | > 100 µM (inactive) | – | > 100 µM (inactive) | > 100 µM (inactive) | > 100 µM (inactive) | > 100 µM (inactive) | > 100 µM (inactive) | – | > 100 µM (inactive) | > 100 µM (inactive) | > 100 µM (inactive) | > 100 µM (inactive) | > 100 µM (inactive) | > 100 µM (inactive) | > 100 µM (inactive) | > 100 µM (inactive) | > 100 µM (inactive) | > 100 µM (inactive)
6 | COc1ccc2c(c1)CC1c3c(cc4c(c3-2)OCO4)CCN1C (stereo not drawn) | 14.4 µM (inactive) | 16.9 µM (inactive) | 23.9 µM (inactive) | 41.9 µM (inactive) | 25.7 µM (inactive) | 18.1 µM (inactive) | 27.7 µM (inactive) | 28 µM (inactive) | 24.6 µM (inactive) | 15.6 µM (inactive) | 32.5 µM (inactive) | 23.1 µM (inactive) | 21.6 µM (inactive) | 31.3 µM (inactive) | 28.8 µM (inactive) | 16.9 µM (inactive) | 21.3 µM (inactive) | 22.6 µM (inactive) | 31.6 µM (inactive)
7 | COc1ccc(C=O)cc1O[Si](C)(C)C(C)(C)C | > 100 µM (inactive) | > 100 µM (inactive) | > 100 µM (inactive) | > 100 µM (inactive) | > 100 µM (inactive) | 25.7 µM (inactive) | > 100 µM (inactive) | > 100 µM (inactive) | – | – | > 100 µM (inactive) | > 100 µM (inactive) | > 100 µM (inactive) | > 100 µM (inactive) | – | > 100 µM (inactive) | > 100 µM (inactive) | 61.5 µM (inactive) | > 100 µM (inactive)
8 | COC(=O)/C(C#N)=C1\NN=NN1CCCN1CCOCC1 | > 100 µM (inactive) | > 100 µM (inactive) | > 100 µM (inactive) | > 100 µM (inactive) | > 100 µM (inactive) | > 100 µM (inactive) | > 100 µM (inactive) | > 100 µM (inactive) | > 100 µM (inactive) | > 100 µM (inactive) | > 100 µM (inactive) | – | > 100 µM (inactive) | > 100 µM (inactive) | > 100 µM (inactive) | > 100 µM (inactive) | > 100 µM (inactive) | > 100 µM (inactive) | > 100 µM (inactive)
9 | C/C=C/C=N/N(c1nnc(-c2ccccc2)c(-c2ccccc2)n1)S(=O)(=O)c1ccc(C)cc1 | 14.3 µM (inactive) | 11.8 µM (inactive) | 16.9 µM (inactive) | 5.05 µM (inactive) | 11.1 µM (inactive) | 16.2 µM (inactive) | 11.7 µM (inactive) | 10.4 µM (inactive) | 15.3 µM (inactive) | 4.75 µM (inactive) | 12.6 µM (inactive) | 13.2 µM (inactive) | 5.53 µM (inactive) | 11.5 µM (inactive) | 13.5 µM (inactive) | 8.22 µM (inactive) | 18.7 µM (inactive) | 3.61 µM (inactive) | 4.04 µM (inactive)
10 | O=C(/C=C/c1ccccc1)c1ccc(Cl)cc1Cl | 18.3 µM (inactive) | 18.2 µM (inactive) | 25.9 µM (inactive) | 17.1 µM (inactive) | 15.5 µM (inactive) | 35.9 µM (inactive) | 16.8 µM (inactive) | 25.1 µM (inactive) | 29.9 µM (inactive) | 13.4 µM (inactive) | 20 µM (inactive) | 20.7 µM (inactive) | 15.1 µM (inactive) | 20.8 µM (inactive) | – | 14.1 µM (inactive) | 46.9 µM (inactive) | 30.8 µM (inactive) | 19.6 µM (inactive)
11 | O=S(=O)(O)c1ccc(-c2c3nc(c(-c4ccc(S(=O)(=O)O)cc4)c4ccc([nH]4)c(-c4ccc(S(=O)(=O)O)cc4)c4nc(c(-c5ccc(S(=O)(=O)O)cc5)c5ccc2[nH]5)C=C4)C=C3)cc1 | 31 µM (inactive) | 86.3 µM (inactive) | > 100 µM (inactive) | > 100 µM (inactive) | 95.5 µM (inactive) | 21.8 µM (inactive) | > 100 µM (inactive) | > 100 µM (inactive) | – | 26.5 µM (inactive) | > 100 µM (inactive) | 45.6 µM (inactive) | > 100 µM (inactive) | > 100 µM (inactive) | 16.5 µM (inactive) | > 100 µM (inactive) | > 100 µM (inactive) | 17.3 µM (inactive) | > 100 µM (inactive)
12 | CN(C(=O)C1CC1)C1C2CN3CCC(O2)C13 (stereo not drawn) | > 100 µM (inactive) | > 100 µM (inactive) | > 100 µM (inactive) | > 100 µM (inactive) | > 100 µM (inactive) | > 100 µM (inactive) | > 100 µM (inactive) | > 100 µM (inactive) | > 100 µM (inactive) | > 100 µM (inactive) | > 100 µM (inactive) | > 100 µM (inactive) | – | > 100 µM (inactive) | > 100 µM (inactive) | > 100 µM (inactive) | > 100 µM (inactive) | > 100 µM (inactive) | > 100 µM (inactive)
13 | O=C(/C=C/c1ccccc1O)c1cccnc1 | > 100 µM (inactive) | > 100 µM (inactive) | > 100 µM (inactive) | > 100 µM (inactive) | > 100 µM (inactive) | – | > 100 µM (inactive) | > 100 µM (inactive) | > 100 µM (inactive) | > 100 µM (inactive) | > 100 µM (inactive) | > 100 µM (inactive) | > 100 µM (inactive) | > 100 µM (inactive) | > 100 µM (inactive) | > 100 µM (inactive) | > 100 µM (inactive) | > 100 µM (inactive) | > 100 µM (inactive)
14 | Cc1cc(NS(=O)(=O)c2ccc(NC(=O)c3ccc(Cl)c4c(Nc5ccc(S(=O)(=O)Nc6cc(C)on6)cc5)c5ccccc5nc34)cc2)no1 | 24.1 µM (inactive) | 19 µM (inactive) | 15.9 µM (inactive) | > 10 µM (inactive) | 22.5 µM (inactive) | 19.8 µM (inactive) | 19.8 µM (inactive) | 16.2 µM (inactive) | – | 11.8 µM (inactive) | 16.6 µM (inactive) | 34.6 µM (inactive) | 46 µM (inactive) | 14.9 µM (inactive) | > 10 µM (inactive) | 23 µM (inactive) | 19.2 µM (inactive) | 6.46 µM (inactive) | 16.2 µM (inactive)
15 | CCc1cccc(C)c1NC(=O)CC1Sc2ccccc2NC1=O (stereo not drawn) | 28.6 µM (inactive) | 40.8 µM (inactive) | 60.5 µM (inactive) | 28.4 µM (inactive) | 48.9 µM (inactive) | 32.8 µM (inactive) | – | 27.3 µM (inactive) | 16 µM (inactive) | 20 µM (inactive) | 32.6 µM (inactive) | 75.3 µM (inactive) | 65.5 µM (inactive) | 31.9 µM (inactive) | 84.7 µM (inactive) | 23.4 µM (inactive) | 75.7 µM (inactive) | 10.7 µM (inactive) | 31.5 µM (inactive)
